Results: PubChem BioAssay (NCI)
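The compound was tested at five concentrations on cells cultured in 96-well plates, with a 48-hour exposure period. At the GI50, growth is halved. TGI marks complete inhibition of growth.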

Assays:
Assay in all cases: DTP human tumour cell line panel, 48 h; in the data active means GI50 below about 0.43 µM; inactive means the rest
HL-60(TB) leukemia = system: HL-60(TB) leukemia
NCI-H23 lung = system: NCI-H23 lung
IGROV1 ovarian = system: IGROV1 ovarian
RPMI-8226 leukemia = system: RPMI-8226 leukemia
SK-OV-3 ovarian = system: SK-OV-3 ovarian
MALME-3M melanoma = system: MALME-3M melanoma
OVCAR-4 ovarian = system: OVCAR-4 ovarian
RXF 393 renal = system: RXF 393 renal
UACC-62 melanoma = system: UACC-62 melanoma
SW-620 colon = system: SW-620 colon
OVCAR-3 ovarian = system: OVCAR-3 ovarian
NCI-H226 lung = system: NCI-H226 lung
MDA-MB-435 = system: MDA-MB-435
CCRF-CEM leukemia = system: CCRF-CEM leukemia
MDA-MB-231 breast = system: MDA-MB-231 breast
A549 NSCLC = system: A549 NSCLC
U251 CNS = system: U251 CNS
HCC-2998 colon = system: HCC-2998 colon
UO-31 renal = system: UO-31 renal
OVCAR-8 ovarian = system: OVCAR-8 ovarian
M14 melanoma = system: M14 melanoma
PC-3 prostate = system: PC-3 prostate
HCT-116 colon = system: HCT-116 colon
ACHN renal = system: ACHN renal
LOX IMVI melanoma = system: LOX IMVI melanoma
NCI-H522 lung = system: NCI-H522 lung
T-47D breast = system: T-47D breast
SF-295 CNS = system: SF-295 CNS
UACC-257 melanoma = system: UACC-257 melanoma
TK-10 renal = system: TK-10 renal
SF-539 CNS = system: SF-539 CNS
DU-145 prostate = system: DU-145 prostate
BT-549 breast = system: BT-549 breast
786-0 renal = system: 786-0 renal
EKVX NSCLC = system: EKVX NSCLC
HCT-15 colon = system: HCT-15 colon
COLO 205 colon = system: COLO 205 colon
NCI/ADR-RES ovarian = system: NCI/ADR-RES ovarian
SK-MEL-2 melanoma = system: SK-MEL-2 melanoma
OVCAR-5 ovarian = system: OVCAR-5 ovarian
SNB-75 CNS = system: SNB-75 CNS
SR leukemia = system: SR leukemia
SK-MEL-28 melanoma = system: SK-MEL-28 melanoma
SN12C renal = system: SN12C renal
HT29 colon = system: HT29 colon
K-562 leukemia = system: K-562 leukemia
A498 renal = system: A498 renal
HOP-62 NSCLC = system: HOP-62 NSCLC
HS 578T breast = system: HS 578T breast
CAKI-1 renal = system: CAKI-1 renal
KM12 colon = system: KM12 colon

C=CCC(N[C@@H](CO)c1ccccc1)c1ccc2ccccc2n1 (some centres not stated)
65.5 µM: TGI (SR leukemia)
> 100 µM: TGI (NCI-H23 lung) | TGI (IGROV1 ovarian) | TGI (RPMI-8226 leukemia) | TGI (SK-OV-3 ovarian) | TGI (MALME-3M melanoma) | TGI (OVCAR-4 ovarian) | TGI (RXF 393 renal) | TGI (UACC-62 melanoma) | TGI (SW-620 colon) | TGI (OVCAR-3 ovarian) | TGI (NCI-H226 lung) | TGI (MDA-MB-435) | TGI (CCRF-CEM leukemia) | TGI (MDA-MB-231 breast) | TGI (A549 NSCLC) | TGI (U251 CNS) | TGI (HCC-2998 colon) | TGI (UO-31 renal) | TGI (OVCAR-8 ovarian) | TGI (M14 melanoma) | TGI (PC-3 prostate) | TGI (HCT-116 colon) | TGI (ACHN renal) | TGI (LOX IMVI melanoma) | TGI (NCI-H522 lung) | TGI (T-47D breast) | TGI (SF-295 CNS) | TGI (UACC-257 melanoma) | TGI (TK-10 renal) | TGI (SF-539 CNS) | TGI (DU-145 prostate) | TGI (BT-549 breast) | TGI (786-0 renal) | TGI (EKVX NSCLC) | TGI (HCT-15 colon) | TGI (COLO 205 colon) | TGI (NCI/ADR-RES ovarian) | TGI (SK-MEL-2 melanoma) | TGI (OVCAR-5 ovarian) | TGI (SNB-75 CNS) | TGI (SK-MEL-28 melanoma) | TGI (SN12C renal) | TGI (HT29 colon) | TGI (K-562 leukemia) | TGI (A498 renal) | TGI (HOP-62 NSCLC) | TGI (HS 578T breast) | TGI (CAKI-1 renal) | TGI (KM12 colon)
inactive: GI50 (HL-60(TB) leukemia) 12.3 µM | GI50 (NCI-H23 lung) > 100 µM | GI50 (IGROV1 ovarian) 29.9 µM | GI50 (RPMI-8226 leukemia) 30.2 µM | GI50 (SK-OV-3 ovarian) > 100 µM | GI50 (MALME-3M melanoma) 88.6 µM | GI50 (OVCAR-4 ovarian) > 100 µM | GI50 (RXF 393 renal) > 100 µM | GI50 (UACC-62 melanoma) > 100 µM | GI50 (SW-620 colon) > 100 µM | GI50 (OVCAR-3 ovarian) 57.4 µM | GI50 (NCI-H226 lung) > 100 µM | GI50 (MDA-MB-435) > 100 µM | GI50 (CCRF-CEM leukemia) 46.1 µM | GI50 (MDA-MB-231 breast) 45.8 µM | GI50 (A549 NSCLC) > 100 µM | GI50 (U251 CNS) > 100 µM | GI50 (HCC-2998 colon) > 100 µM | GI50 (UO-31 renal) 88.2 µM | GI50 (OVCAR-8 ovarian) > 100 µM | GI50 (M14 melanoma) > 100 µM | GI50 (PC-3 prostate) > 100 µM | GI50 (HCT-116 colon) > 100 µM | GI50 (ACHN renal) > 100 µM | GI50 (LOX IMVI melanoma) > 100 µM | GI50 (NCI-H522 lung) 64.6 µM | GI50 (T-47D breast) 61.1 µM | GI50 (SF-295 CNS) > 100 µM | GI50 (UACC-257 melanoma) 32.4 µM | GI50 (TK-10 renal) > 100 µM | GI50 (SF-539 CNS) > 100 µM | GI50 (DU-145 prostate) > 100 µM | GI50 (BT-549 breast) > 100 µM | GI50 (786-0 renal) > 100 µM | GI50 (EKVX NSCLC) > 100 µM | GI50 (HCT-15 colon) > 100 µM | GI50 (COLO 205 colon) > 100 µM | GI50 (NCI/ADR-RES ovarian) > 100 µM | GI50 (SK-MEL-2 melanoma) > 100 µM | GI50 (OVCAR-5 ovarian) > 100 µM | GI50 (SNB-75 CNS) 51.2 µM | GI50 (SR leukemia) 17.2 µM | GI50 (SK-MEL-28 melanoma) > 100 µM | GI50 (SN12C renal) 67.5 µM | GI50 (HT29 colon) > 100 µM | GI50 (K-562 leukemia) 36.2 µM | GI50 (A498 renal) 93.2 µM | GI50 (HOP-62 NSCLC) > 100 µM | GI50 (HS 578T breast) > 100 µM | GI50 (CAKI-1 renal) > 100 µM | GI50 (KM12 colon) > 100 µM
51.5 µM: TGI (HL-60(TB) leukemia)
